This is an account of results in patent publication US20130184308A1, “ACTIVATED BLOOD COAGULATION FACTOR X (FXa) INHIBITOR” (DAIICHI SANKYO COMPANY, LIMITED, priority 2008, published 2013).

Data set [1] relates to F1+2, TAT, D-dimer. The data set can be described thus: Early phase II trials: biomarkers F1+2, TAT and D-dimer. In kind it is in vivo, human. The text has this:
(§1) The biomarkers F1+2 and TAT are markers of thrombin formation, while D-dimer is a marker of secondary fibrinolysis.

Data set [2] concerns bleeding events. The conditions noted are these: total knee arthroplasty patients; 5 mg to 60 mg oral once a day 11 to 14 days. From the text:
The implementation of this clinical trial conformed to the ethical research guidelines of the Declaration of Helsinki and secured the maximal human rights, welfare, and safety of the test subjects.

Data set [3] relates to D-dimer. The data set can be described thus: Dose comparison study in non-valvular atrial fibrillation patients: biomarker D-dimer. The conditions noted are these: 28 days after administration. In kind it is in vivo, human. The procedure:
(§2) Moreover, secondary evaluations were performed for efficacy by the comparison of the incidence of thromboembolic events, pharmacodynamic indexes, and biomarkers, and for safety by the comparison of the incidences of adverse events and adverse reactions. […] In the group to which warfarin was administered, 0.5-mg and 1-mg warfarin tablets were used and orally administered once a day for 12 weeks as a rule at a dose that allowed PT-INR to be controlled to between 2.0 and 3.0 inclusive (for 70-year-old or older participants, between 1.6 and 2.6 inclusive).
(§3) The clinical trial was carried out by, after obtaining the consent of test subjects, conducting head diagnostic imaging before registration to confirm no bleeding observation, and conducting head diagnostic imaging (CT or MRI), transthoracic echocardiography, lead electrocardiography, blood pressure examination, pulse rate examination, and hematological/biochemical tests.
as §1

Data set [4] concerns bleeding events. On the procedure:
as §2, §3
In the secondary analysis, the hypothesis (comparison) shown below was studied on the incidence of bleeding events using the one-sided Cochran-Armitage test at the 0.025 level of significance.
This clinical trial was carried out in conformity to the standards specified by Article 14 Paragraph 3 and Article 80-2 of the Pharmaceutical Affairs Law and MHW Ordinance No. 28 “Standards for the Implementation of Clinical Trials on Pharmaceutical Products” (Mar. 27, 1997; hereinafter, referred to as the GCP ordinance). The implementation of this clinical trial conformed to the ethical research guidelines of the Declaration of Helsinki and secured the maximal human rights, welfare, and safety of the test subjects. [Protocol No. of this clinical trial: DU-176b-C-J225_Ver.03.05.000].

Data set [5] concerns F1+2, TAT, D-dimer. The conditions noted are these: atrial fibrillation patients; anticoagulant therapy (N. Vene et al., Thromb Haemost 2003); cited from earlier work.
Where [6] appears, read: NVAF patients, 30 mg, 45 mg, 60 mg oral once a day 12 weeks.

Like-named read-outs stand apart in the source and are kept apart here.

Regarding `CN1CCc2nc(C(=O)N[C@@H]3C[C@@H](C(=O)N(C)C)CC[C@@H]3NC(=O)C(=O)Nc3ccc(Cl)cn3)sc2C1.Cc1ccc(S(=O)(=O)O)cc1` [compound (1a), N^1-(5-chloropyridin-2-yl)-N^2-((1S,2R,4S)-4-[(dimethylamino)carbonyl]-2-{[(5-methyl-4,5,6,7-tetrahydrothiazolo[5,4-c]pyridin-2-yl)carbonyl]amino}cyclohexyl)ethanediamide p-toluenesulfonate monohydrate], in data set [1], the “levels of biomarkers F1+2, TAT and D-dimer” value is recorded as “reduce the levels of these biomarkers”. In data set [2], the “incidence of bleeding events compared with placebo group” value was “did not differ from that in the group to which the placebo had been administered” and the “number of bleeding events” value is on record as “increased in a manner dependent on the dose”. Further, the “D-dimer (secondary fibrinolysis biomarker)” value in data set [3] (NVAF patients, compared with warfarin) is on record as “comparable to that of warfarin”. In data set [3] (test subjects having no history of warfarin administration, compared with warfarin-administered patients), the “D-dimer (secondary fibrinolysis biomarker)” value is “comparable to that of warfarin-administered patients”. Moreover, the “incidence of bleeding events in four groups divided by BW (60 kg) and Ccr (50)” value in data set [4] (NVAF patients that received compound (1a)) is reported as “highest incidence of bleeding events was obtained in the group of (4) BW≦60 kg, Ccr≦50”. Also, in data set [4] (setting [6]), the “incidence of bleeding events (major, clinically relevant non-major, minor), dose response” value was “increased as the dose of the compound (1a) got higher” and the “incidence of bleeding events compared with warfarin group” value was “no significant difference”. For the same molecule, the “incidence of bleeding events, Ccr≦50 versus Ccr>50” value in data set [4] (NVAF patients, 45 mg/kg or higher (so in the source)) is reported as “higher in the group to which compound (1a) had been administered involving the test subjects having creatinine clearance (Ccr) of Ccr≦50”. Further, the “incidence of bleeding events, BW≦60 kg versus BW>60 kg” value in data set [4] (NVAF patients, dose of 45 mg/kg or higher (so in the source)) is “higher in the group to which compound (1a) had been administered involving the test subjects having a body weight (BW) of BW≦60 kg”.
As to `CC(=O)CC(c1ccccc1)c1c(O)c2ccccc2oc1=O` (centres unmarked) [warfarin, warfarin potassium], the “levels of biomarkers F1+2, TAT and D-dimer” value in data set [5] was “decreased by anticoagulant therapy using warfarin”.
